Test results reported in the supplement of paper PMC10307832.

Assays:
Assay in all cases: relative viability (nuclei count vs DMSO), 5 days (fraction); higher = more cells survive
MLN4924 + Pictilisib = compound: NS(=O)(=O)OC[C@@H]1C[C@@H](n2ccc3c(N[C@H]4CCc5ccccc54)ncnc32)C[C@@H]1O [MLN4924] + CS(=O)(=O)N1CCN(Cc2cc3nc(-c4cccc5[nH]ncc45)nc(N4CCOCC4)c3s2)CC1 [Pictilisib] (partner 1 µM)
In short: (§1)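 One day after seeding in 1536-well plates, lung cancer cell lines were dosed by pin tool. Dosing was either single-drug or a fixed anchor-drug dose plus five library-drug doses (not always all listed) in √10 steps. After 5 days, nuclei were stained in one fix-and-stain step and counted on 4× images, and relative viability is the nuclei count of treated wells over that of vehicle wells, given as the median of duplicate plates.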

MLN4924 + Olaparib = compound: NS(=O)(=O)OC[C@@H]1C[C@@H](n2ccc3c(N[C@H]4CCc5ccccc54)ncnc32)C[C@@H]1O [MLN4924] + O=C(c1cc(Cc2n[nH]c(=O)c3ccccc23)ccc1F)N1CCN(C(=O)C2CC2)CC1 [Olaparib] (partner 8 µM)
In short: as §1

GSK126 + Olaparib = compound: CC[C@H](C)N1C=C(C2=C(C=C(C=C21)C3=CN=C(C=C3)N4CCNCC4)C(=O)NCC5=C(C=C(NC5=O)C)C)C [GSK126] + O=C(c1cc(Cc2n[nH]c(=O)c3ccccc23)ccc1F)N1CCN(C(=O)C2CC2)CC1 [Olaparib] (partner 8 µM)
In short: as §1

GSK126 + OSI-027 = compound: CC[C@H](C)N1C=C(C2=C(C=C(C=C21)C3=CN=C(C=C3)N4CCNCC4)C(=O)NCC5=C(C=C(NC5=O)C)C)C [GSK126] + COc1cccc2cc(-c3nc([C@H]4CC[C@H](C(=O)O)CC4)n4ncnc(N)c34)[nH]c12 [OSI-027] (partner 0.5 µM)
In short: as §1

Row | Cell Line | relative viability (MLN4924 + Pictilisib; first compound 0.04 µM) | relative viability (MLN4924 + Pictilisib; first compound 0.1265 µM) | relative viability (MLN4924 + Pictilisib; first compound 0.4 µM) | relative viability (MLN4924 + Pictilisib; first compound 1.265 µM) | relative viability (MLN4924 + Pictilisib; first compound 4 µM) | relative viability (MLN4924 + Olaparib; first compound 0.04 µM) | relative viability (MLN4924 + Olaparib; first compound 0.1265 µM) | relative viability (MLN4924 + Olaparib; first compound 0.4 µM) | relative viability (MLN4924 + Olaparib; first compound 1.265 µM) | relative viability (MLN4924 + Olaparib; first compound 4 µM) | relative viability (GSK126 + Olaparib; first compound 0.08 µM) | relative viability (GSK126 + Olaparib; first compound 0.253 µM) | relative viability (GSK126 + Olaparib; first compound 0.8 µM) | relative viability (GSK126 + Olaparib; first compound 2.53 µM) | relative viability (GSK126 + Olaparib; first compound 8 µM) | relative viability (GSK126 + OSI-027; first compound 0.08 µM) | relative viability (GSK126 + OSI-027; first compound 0.253 µM) | relative viability (GSK126 + OSI-027; first compound 0.8 µM) | relative viability (GSK126 + OSI-027; first compound 2.53 µM) | relative viability (GSK126 + OSI-027; first compound 8 µM)
1 | NCI-H1703 | 0.181 | 0.162 | 0.165 | 0.155 | 0.174 | 0.332 | 0.174 | 0.156 | 0.145 | 0.135 | 0.576 | 0.351 | 0.694 | 0.455 | 0.492 |  |  |  |  | 
2 | NCI-H1793 | 0.322 | 0.284 | 0.273 | 0.245 | 0.121 | 0.833 | 0.964 | 0.991 | 0.297 | 0.194 | 0.931 | 0.8 | 0.732 | 1.24 | 0.989 | 0.288 | 0.241 | 0.318 | 0.248 | 0.32
3 | NCI-H522 |  |  |  |  |  | 0.568 | 0.495 | 0.485 | 0.288 | 0.322 | 0.61 | 0.599 | 0.639 | 0.611 | 0.699 | 0.651 | 0.731 | 0.779 | 0.638 | 0.686
4 | LOU-NH91 | 0.53 | 0.574 | 0.515 | 0.393 | 0.434 | 0.887 | 0.844 | 0.724 | 0.47 | 0.48 | 0.938 | 0.942 | 0.879 | 0.956 | 0.887 | 0.728 | 0.735 | 0.751 | 0.681 | 0.787
5 | NCI-H1355 | 0.332 | 0.421 | 0.273 | 0.182 | 0.176 | 0.688 | 0.516 | 0.525 | 0.306 | 0.186 | 0.809 | 0.754 | 0.772 | 0.752 | 0.774 | 0.412 | 0.362 | 0.418 | 0.453 | 0.44
6 | NCI-H441 | 0.471 | 0.285 | 0.251 | 0.136 | 0.139 | 0.567 | 0.426 | 0.296 | 0.143 | 0.169 | 0.612 | 0.561 | 0.566 | 0.539 | 0.44 | 0.949 | 0.686 | 0.637 | 0.677 | 0.543
7 | NCI-H1395 | 0.626 | 0.969 | 0.425 | 0.313 | 0.339 | 0.415 | 0.426 | 0.367 | 0.339 | 0.364 | 0.468 | 0.465 | 0.438 | 0.456 | 0.414 | 0.679 | 0.561 | 0.648 | 0.704 | 0.649
8 | NCI-H2023 | 0.315 | 0.145 | 0.101 | 0.0651 | 0.0705 | 0.397 | 0.221 | 0.12 | 0.0617 | 0.0657 | 0.489 | 0.496 | 0.446 | 0.467 | 0.382 | 0.595 | 0.388 | 0.447 | 0.495 | 0.527
9 | NCI-H1666 | 0.404 | 0.478 | 0.247 | 0.159 | 0.156 | 0.774 | 0.691 | 0.657 | 0.468 | 0.388 | 0.745 | 0.723 | 0.742 | 0.729 | 0.76 | 0.886 | 0.868 | 0.986 | 0.789 | 0.822
10 | NCI-H1648 |  |  |  |  |  | 0.535 | 0.398 | 0.382 | 0.253 | 0.274 | 1.01 | 1.22 | 0.774 | 1.1 | 0.908 | 0.248 |  | 0.265 | 0.242 | 0.252
11 | Calu-6 | 1.08 | 0.707 | 0.238 | 0.108 | 0.135 | 0.369 | 0.268 | 0.167 | 0.0976 | 0.0925 | 0.604 | 0.664 |  | 0.612 | 0.577 |  |  |  |  | 
12 | EBC-1 | 0.488 | 0.372 | 0.245 | 0.11 | 0.162 | 0.558 | 0.259 | 0.134 | 0.0918 | 0.115 | 0.743 | 0.711 | 0.702 | 0.684 | 0.615 |  |  |  |  | 
13 | IA-LM | 0.342 | 0.145 | 0.0958 | 0.0574 | 0.0645 | 0.458 | 0.297 | 0.227 | 0.0664 | 0.0734 | 1.03 | 0.832 | 0.99 | 0.759 | 0.75 |  |  |  |  | 
14 | NCI-H1563 | 0.802 | 0.646 | 0.581 | 0.535 | 0.586 |  |  |  |  |  |  |  |  |  |  | 0.789 | 0.785 | 0.863 | 0.803 | 0.753
15 | NCI-H1299 | 0.378 | 0.398 | 0.153 | 0.0571 | 0.0769 | 0.912 | 0.667 | 0.416 | 0.201 | 0.172 | 1 | 0.93 | 0.922 | 0.921 | 0.976 |  |  |  |  | 
16 | NCI-H2342 |  |  |  |  |  | 0.432 | 0.425 | 0.381 | 0.391 | 0.352 | 0.447 | 0.501 | 0.392 | 0.424 | 0.469 | 0.678 | 0.616 | 0.622 | 0.626 | 0.669
17 | SW 900 |  |  |  |  |  |  | 0.594 | 0.429 | 0.233 | 0.228 | 0.909 | 0.751 | 0.866 | 0.885 | 0.888 | 0.605 | 0.505 | 0.502 | 0.473 | 0.466
18 | NCI-H1623 |  |  |  |  |  |  |  |  |  |  |  |  |  |  |  | 0.414 | 0.473 | 0.425 | 0.504 | 0.401
19 | A549 | 0.5 | 0.474 | 0.246 | 0.0557 | 0.0729 | 0.349 | 0.28 | 0.0869 | 0.045 | 0.0539 | 0.361 | 0.297 | 0.336 | 0.333 | 0.368 |  |  |  |  | 
